Measurements from patent US20100087499A1, “PHARMACEUTICAL COMPOSITIONS AND METHODS OF USING TEMOZOLOMIDE AND MULTI-TARGETED KINASE INHIBITORS” (SCHERING CORPORATION, priority 2007, published 2010).

Tested on: U87MG glioblastoma xenograft
Test: U87MG glioblastoma xenograft tumor growth in nude mice
Format: in vivo
Method: The following human glioblastoma xenograft model may be employed to ascertain the efficacy of the formulations and methods described herein. Human glioblastoma cell U87MG are inoculated subcutaneously into female nude mice (age 4-6 wks). Xenograft tumor growth is followed by measuring the tumor size using a caliper. Once tumor size reaches about 100 mm^3 (average), mice carrying the xenograft tumors are grouped and treated with different doses of the combination of TMZ and a multi-targeted kinase inhibitor. Likewise, human glioblastoma cell U373 may be used to establish a xenograft model.
The combination of TMZ and a multi-targeted kinase inhibitor (e.g., sunitinib) for treating a cell proliferative disorder was examined using a human glioblastoma xenograft model. In particular, the glioblastoma model U87MG was used to evaluate the efficacy of multi-targeted kinase inhibitor sunitinib as a single agent compared to TMZ (Temozolomide, Temodar®), a chemotherapeutic drug clinically approved for treating brain tumor, as a single agent. In addition, this study looked at the efficacy of the combination of TMZ with sunitinib in comparison to the efficacy with either agent alone.
In brief, nude mice were inoculated with U87-MG glioblastoma cells and the resultant tumors treated with control, or various concentrations of TMZ, sunitinib, or a combination of both TMZ and sunitinib. More specifically, female nude mice (strain NU/NU), aged 6-8 weeks old were purchased from Charles River Laboratory. Five million glioblastoma U87-MG were mixed 1:1 (volume:volume) with Matrigel (Cat. # 354234, BD Biosciences) on ice and mixtures were inoculated subcutaneously to the flank of each mouse. Dosing was initiated on day 8 after inoculation when the tumor size was approximately 100 mm^3. TMZ was administered qd, ip for five consecutive days. Sunitinib was administered qd, po for 9-12 days consecutive days (until the end of the studies). The dosing volume was approximately 0.1 ml. Tumor size and body weight was measured two to three times per week.
There were 10 nude mice per dosing regimen.

CCN(CC)CCNC(=O)c1c(C)[nH]c(/C=C2\C(=O)Nc3ccc(F)cc32)c1C [sunitinib]
inhibition of tumor growth (Day 17 post inoculation, sunitinib alone 40 mpk qd po, Table 1 / FIG. 2): 56%
inhibition of tumor growth (Day 17 post inoculation, sunitinib alone 80 mpk qd po, Table 1 / FIG. 2): 82%
inhibition of tumor growth (Day 20 post inoculation, sunitinib alone 40 mpk qd po, Table 2 / FIG. 4): 76%
inhibition of tumor growth (Day 20 post inoculation, sunitinib alone 80 mpk qd po, Table 2 / FIG. 4): 83%

Cn1nnc2c(C(N)=O)ncn2c1=O [TMZ, 3,4-dihydro-3-methyl-4-oxoimidazo[5,1-d]-as-tetazine-8-carboxamide]
inhibition of tumor growth (Day 17 post inoculation (day 9 post dosing initiation), TMZ alone 20 mpk qd ip x5 days, Table 1 / FIG. 2): 96%
inhibition of tumor growth (Day 17 post inoculation, TMZ alone 30 mpk (so in the source) qd ip x5 days, Table 1 / FIG. 2): 96%
inhibition of tumor growth (Day 17 post inoculation, TMZ alone 40 mpk (so in the source) qd ip x5 days, Table 1 / FIG. 2): 98%
inhibition of tumor growth (Day 20 post inoculation (day 12 post dosing initiation), TMZ alone 5 mpk qd ip x5 days, Table 2 / FIG. 4): 95%
inhibition of tumor growth (Day 20 post inoculation, TMZ alone 20 mpk qd ip x5 days, Table 2 / FIG. 4): 102%
